Source: patent US6454951B1, “Photosensitive composition” (priority 1996, dated 2002)

Key:
Escherichia coli = test: Photo-inactivation of bacteria by visible light irradiation (cell survival); conditions: in words
Vibrio anguillarum = test: as above; type: cell-based; conditions: in words

Meso-di(N-methyl-4-pyridyl)diphenylporphine [Di(4-N-MPy)Ph2P]
Photo-inactivation compared with T4MPyP (Escherichia coli): more rapid and more intense photo-inactivation | Effect of washing operations on photosensitizing efficiency (Vibrio anguillarum; Gram-negative bacteria, FIG. 1, visible light): less sensitive to washing and retains a high photoactivity | Photo-inactivation compared with T4MPyP (Vibrio anguillarum; Vibrio anguillarum, visible light): more rapid and more intense photo-inactivation
